Legend:
Vaccinia VP13 = test: microbe, parasite or virus in culture; format: cell-based, Vaccinia virus; conditions: for EC50: Orthopoxvirus vaccinia, HFF-1, 96 h
Monkeypox virus = test: microbe, parasite or virus in culture; format: cell-based; conditions: for EC50: Monkeypox virus, HFF-1, 96 h
Cowpox virus = test: microbe, parasite or virus in culture; format: cell-based; conditions: for EC50: Cowpox virus, HFF-1, 96 h
Smallpox virus = test: microbe, parasite or virus in culture; format: cell-based; conditions: for EC50: Variola virus, HFF-1, 96 h
in vitro = conditions: human

With [N-]=[N+]=NC1(CO)OC(n2ccc(N)nc2=O)C(F)C1O (centres unmarked) [Compound 1, Azvudine] the “activity to inhibit vaccinia virus (in words)” value (Vaccinia VP13) was “significant inhibitory effect”, the EC50 (Vaccinia VP13) was 570 nM and the “activity to inhibit monkeypox virus (in words)” value (Monkeypox virus) was “significant inhibitory effect”. For the same compound, the EC50 (Monkeypox virus) was 320 nM, the “activity to inhibit cowpox virus (in words)” value (Cowpox virus) was “significant inhibitory effect” and the EC50 (Cowpox virus) was 750 nM. For the same compound, the “activity to inhibit smallpox virus (in words)” value (Smallpox virus) was “significant inhibitory effect”, the EC50 (Smallpox virus) was 1200 nM and the CC50 (in vitro) was over 10000 nM.

Work on O=C(NN1C(=O)[C@@H]2[C@@H]3C=C[C@@H]([C@H]4C[C@@H]34)[C@@H]2C1=O)c1ccc(C(F)(F)F)cc1 [ST-246, reference compound] yielded an EC50 (Vaccinia VP13) of 40 nM, an EC50 (Monkeypox virus) of 30 nM and an EC50 (Cowpox virus) of 50 nM. For the same compound, the EC50 (Smallpox virus) was 70 nM and the CC50 (in vitro) was over 100000 nM.

Source: patent publication US20260137710A1, “PHARMACEUTICAL USE OF NUCLEOSIDE COMPOUND” (priority 2022, published 2026)
